Experiments:
Chalara fraxinea = assay: Agar plate growth inhibition assay of fungicides against fungi (Chalara fraxinea); assay type: cell-based; details: Chalara fraxinea on YPG agar plates, 3-5 days at 30° C.; compounds used separately or in combination
Method: Example 1—Assays Used to Test Fungicides Against Fungi (e.g. Chalara fraxinea)
• 2% Yeast extract • 2% Peptone • 2% D-glucose • 2% agar YPG • 2% Yeast extract • 2% Peptone • 2% Glycerol • 2% agar Fungicide Formulations
Colletochlorin B was synthesised using the methodology described in WO 2013/160670 with reference to FIG. 7. Then, 1 μM of Colletochlorin B is separately combined with […] of each of the following fungicides to produce seven different formulations:— • 1) Metalaxyl—belongs to the phenylamide fungicide family (Sukul, P. and M. Spiteller (2000) “Metalaxyl: persistence, degradation, metabolism, and analytical methods.” Rev Environ Contam Toxicol 164: 1-26); • 2) Azoxystrobin—belongs to the strobilurin family; • 3) DMI (DeMethylation Inhibitor); • 4) CuPC33—A copper based compound; • 5) Boscalid; • 6) Difenconcozole; and • 7) Pyraclostrobin. Methods • 1. Yeast strains are streaked out and grown on YPD agar plates for 3 days at 30° C. • 2. 5 mL of YPD liquid media is inoculated with a fungal strain of interest (e.g. Chalara fraxinea) and grown for 3 days at 30° C. with shaking at 180 rpm. • 3. 1 μL inoculum of the fungal strain is added to 9999 μL YPG liquid media and gently mixed. • 4. […] The degree of inhibition of fungal/yeast growth caused by the inhibitors is then assessed. […]

S. cerevisiae = assay: Agar plate growth inhibition assay against S. cerevisiae; assay type: cell-based; details: S. cerevisiae on YPG agar plates, 1 μM of each compound, alone or in combination, 3-5 days at 30° C.; FIG. 8
Method: The inventors tested the efficacy of a combination of Colletochlorin B and azoxystrobin on the growth of S. cerevisiae. As in Example 1, Colletochlorin B was synthesised using the methodology described in WO 2013/160670 with reference to FIG. 7.
• 1. S. cerevisiae was streaked out and grown up on YPD agar plates for 3 days at 30° C. • 2. 5 mL of YPG liquid media was inoculated with S. cerevisiae from the YPD plates and grown for 3 days at 30° C. with shaking at 180 rpm to produce a cell culture. • 3. Approximately 5×10^5 cells of the S. cerevisiae were then plated out onto YPG agar plates containing 1 μM Colletochlorin B, or 1 μM azoxystrobin, or a combination of 1 μM Colletochlorin and 1 μM azoxystrobin. • 4. The plates were incubated for 3-5 days at 30° C. • 5. The degree of inhibition of fungal/yeast growth caused by the inhibitors was then assessed.
For each plate, the yeast colony grown in the centre at the top was not grown in the presence of any inhibitor acting as a negative control. However, for the plate shown in FIG. 8A, the colony shown on the lower left was grown in the presence of only 1 μM Colletochlorin B, and for the plate shown in FIG. 8B, the colony shown on the lower left was grown in the presence of only 1 μM azoxystrobin. […]

[1] = system: microbial alternative oxidase (AOX); details: disclosed in WO 2013/160670; cited from earlier work
cytochrome bc1 complex = details: disclosed in WO 2013/160670; cited from earlier work

CO/C=C(/C(=O)OC)c1ccccc1Oc1cc(Oc2ccccc2C#N)ncn1 [Azoxystrobin, reference compound]
degree of inhibition of fungal growth (Chalara fraxinea): partial growth inhibition
degree of inhibition of fungal/yeast growth (S. cerevisiae): partial growth inhibition

CC(C)=CCC/C(C)=C/Cc1c(O)c(Cl)c(C)c(C=O)c1O [Colletochlorin B]
inhibition of AOX [1]: particularly effective inhibition
degree of inhibition of fungal growth (Chalara fraxinea): partial growth inhibition
inhibition of cytochrome bc1 complex (cytochrome bc1 complex): particularly effective inhibition
degree of inhibition of fungal/yeast growth (S. cerevisiae): partial growth inhibition

Source: patent US10334847B2, “Antifungal composition” (The University of Sussex, priority 2014, dated 2019)
